From patent US20140045890A1, “NOVEL COMPOUNDS” (SYNGENTA PARTICIPATIONS AG, priority 2011, published 2014)

Tests used:
[1] = system: Blumeria qraminis f. sp. tritici (Erysiphe qraminis f. sp. tritici); experiment: Blumeria graminis f. sp. tritici / wheat / leaf disc preventative (powdery mildew on wheat); format: in vivo; conditions: foliar, wheat leaf segments cv. Kanzler, inoculated 1 day after application, assessed 6-8 days after application, read-out: inhibit fungal infestation (percent disease control compared to untreated)
[2] = system: Phytophthora infestans; experiment: whole plant or invertebrate; format: in vivo; conditions: in Solanum lycopersicum, foliar, read-out: inhibit fungal infestation (percent disease control compared to untreated)
[3] = system: Pythium ultimum; experiment: Pythium ultimum / liquid culture (seedling damping off); format: cell-based; conditions: Globisporangium ultimum, liquid culture in PDB, 24° C., 2-3 days after application, read-out: inhibit fungal infestation (inhibition of growth determined photometrically)
[4] = system: Plasmopara viticola; experiment: Plasmopara viticola / grape / leaf disc preventative; format: in vivo; conditions: foliar, grape vine leaf disks, inoculated 1 day after application, assessed 6-8 days after application, read-out: inhibit fungal infestation (percent disease control compared to untreated)
[5] = system: Phaeosphaeria nodorum (Septoria nodorum); experiment: Phaeosphaeria nodorum (Septoria nodorum) / wheat / leaf disc preventative (glume blotch); format: in vivo; conditions: Parastagonospora nodorum, foliar, wheat leaf segments cv. Kanzler, inoculated 2 days after application, assessed 5-7 days after application, read-out: inhibit fungal infestation (percent disease control compared to untreated)

CSC(Oc1ccc2ncc(Br)cc2c1)C(=O)NC(C)(C)c1ccccn1 (stereo not drawn) [Compound 8]
inhibition at 200 ppm [1]: ≥ 80% | inhibition at 200 ppm [2]: ≥ 80% | inhibition at 200 ppm [3]: ≥ 80% | inhibition at 200 ppm [4]: ≥ 80% | melting point: 105 °C | inhibition at 200 ppm [5]: ≥ 80%

CSC(Oc1cc(C)c2ncc(Br)cc2c1)C(=O)NC(C)(C)c1ccccn1 (stereo not drawn) [Compound 9]
inhibition at 200 ppm [1]: ≥ 80% | inhibition at 200 ppm [2]: ≥ 80% | inhibition at 200 ppm [3]: ≥ 80% | inhibition at 200 ppm [4]: ≥ 80% | melting point: 123 °C | inhibition at 200 ppm [5]: ≥ 80%

C#Cc1cnc2c(Cl)cc(OC(SC)C(=O)NC(C)(C)c3ccccn3)cc2c1 (stereo not drawn) [Compound 10]
inhibition at 200 ppm [1]: ≥ 80% | inhibition at 200 ppm [2]: ≥ 80% | inhibition at 200 ppm [3]: ≥ 80% | inhibition at 200 ppm [4]: ≥ 80% | melting point: 153 °C | inhibition at 200 ppm [5]: ≥ 80%

C#Cc1cnc2c(F)cc(OC(SC)C(=O)NC(C)(C)c3ccccn3)cc2c1 (stereo not drawn) [Compound 11]
inhibition at 200 ppm [1]: ≥ 80% | inhibition at 200 ppm [2]: ≥ 80% | inhibition at 200 ppm [3]: ≥ 80% | inhibition at 200 ppm [4]: ≥ 80% | melting point: 125 °C | inhibition at 200 ppm [5]: ≥ 80%

C#Cc1cnc2c(Cl)cc(OC(OC)C(=O)NC(C)(C)c3ccccn3)cc2c1 (stereo not drawn) [Compound 12]
inhibition at 200 ppm [1]: ≥ 80% | inhibition at 200 ppm [2]: ≥ 80% | inhibition at 200 ppm [3]: ≥ 80% | inhibition at 200 ppm [4]: ≥ 80% | melting point: 108 °C | inhibition at 200 ppm [5]: ≥ 80%

C#Cc1cnc2ccc(OC(CC)C(=O)NC(C)(C)c3ccccn3)cc2c1 (stereo not drawn) [Compound 13]
inhibition at 200 ppm [1]: ≥ 80% | inhibition at 200 ppm [2]: ≥ 80% | inhibition at 200 ppm [3]: ≥ 80% | inhibition at 200 ppm [4]: ≥ 80% | melting point: 96 °C | inhibition at 200 ppm [5]: ≥ 80%

C#Cc1cnc2ccc(OC(SC)C(=O)NC(C)(C)c3cccc(C)n3)cc2c1 (stereo not drawn) [Compound 15]
inhibition at 200 ppm [1]: ≥ 80% | inhibition at 200 ppm [2]: ≥ 80% | inhibition at 200 ppm [3]: ≥ 80% | inhibition at 200 ppm [4]: ≥ 80% | melting point: 148 °C | inhibition at 200 ppm [5]: ≥ 80%

C#Cc1cnc2ccc(OC(SC)C(=O)NC(C)(C)c3cc(C)ccn3)cc2c1 (stereo not drawn) [Compound 18, 2-[(3-ethynyl-6-quinolyl)oxy]-N-[1-methyl-1-(4-methyl-2-pyridyl)ethyl]-2-methylsulfanyl-acetamide]
inhibition at 200 ppm [1]: ≥ 80% | inhibition at 200 ppm [2]: ≥ 80% | inhibition at 200 ppm [3]: ≥ 80% | inhibition at 200 ppm [4]: ≥ 80% | melting point: 63 °C | inhibition at 200 ppm [5]: ≥ 80%

C#Cc1cnc2ccc(OC(SC)C(=O)NC(C)(CC)c3nc(C)cs3)cc2c1 (stereo not drawn) [Compound 20]
inhibition at 200 ppm [1]: ≥ 80% | inhibition at 200 ppm [2]: ≥ 80% | inhibition at 200 ppm [3]: ≥ 80% | inhibition at 200 ppm [4]: ≥ 80% | melting point: 120 °C | inhibition at 200 ppm [5]: ≥ 80%

C#Cc1cnc2c(C)cc(OC(SC)C(=O)NCc3nc(C)cs3)cc2c1 (stereo not drawn) [Compound 24]
inhibition at 200 ppm [1]: ≥ 80% | inhibition at 200 ppm [2]: ≥ 80% | inhibition at 200 ppm [3]: ≥ 80% | inhibition at 200 ppm [4]: ≥ 80% | melting point: 148 °C | inhibition at 200 ppm [5]: ≥ 80%

C#Cc1cnc2ccc(OC(SC)C(=O)NC(C)(C)c3nccs3)cc2c1 (stereo not drawn) [Compound 32]
inhibition at 200 ppm [1]: ≥ 80% | inhibition at 200 ppm [2]: ≥ 80% | inhibition at 200 ppm [3]: ≥ 80% | inhibition at 200 ppm [4]: ≥ 80% | melting point: 123 °C | inhibition at 200 ppm [5]: ≥ 80%

C=Cc1cnc2c(C)cc(OC(OC)C(=O)NC(C)(C)c3nc(C)cs3)cc2c1 (stereo not drawn) [Compound 135]
inhibition at 200 ppm [1]: ≥ 80% | inhibition at 200 ppm [2]: ≥ 80% | inhibition at 200 ppm [3]: ≥ 80% | inhibition at 200 ppm [4]: ≥ 80% | melting point: 139 °C | inhibition at 200 ppm [5]: ≥ 80%
